Experiment [1] relates to MCF-7 cells. The experiment is described as follows: Breast Cancer Cell Viability Assays (MCF-7, CellTiter-Glo). The format is cell-based. The settings on record: 5 days' compound exposure; for IC50: Homo sapiens, MCF7, 120 h. The procedure, abridged: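 MCF-7 cells (320/well, RPMI with 10% FBS) exposed for 5 days to an eleven-point semilog series, 0.3–0.000003 μM final. Viability read by CellTiter-Glo luminescence, expressed as background-corrected percent of untreated cells.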

For experiment [2], the target named is T1, ER-α in MCF-7 cells (Homo sapiens, UniProt P03372).
T1 construct: endogenous in cells; host or cells: MCF-7
T1 sequence (P03372 1-595): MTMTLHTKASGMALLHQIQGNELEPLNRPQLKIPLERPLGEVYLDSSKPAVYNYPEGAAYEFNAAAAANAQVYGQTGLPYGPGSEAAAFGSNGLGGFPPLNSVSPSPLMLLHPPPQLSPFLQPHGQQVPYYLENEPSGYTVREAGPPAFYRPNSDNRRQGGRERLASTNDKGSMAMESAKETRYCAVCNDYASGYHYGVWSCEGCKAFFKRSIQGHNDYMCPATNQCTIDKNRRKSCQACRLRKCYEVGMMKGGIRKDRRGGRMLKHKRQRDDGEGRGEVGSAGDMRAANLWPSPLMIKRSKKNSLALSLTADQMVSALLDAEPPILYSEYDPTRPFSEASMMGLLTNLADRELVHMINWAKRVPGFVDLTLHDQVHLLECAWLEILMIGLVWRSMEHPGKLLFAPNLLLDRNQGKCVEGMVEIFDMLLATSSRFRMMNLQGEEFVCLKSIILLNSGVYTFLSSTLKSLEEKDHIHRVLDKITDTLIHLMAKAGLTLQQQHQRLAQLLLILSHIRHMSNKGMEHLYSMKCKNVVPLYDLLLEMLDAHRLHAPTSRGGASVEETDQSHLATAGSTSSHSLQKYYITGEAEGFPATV
The experiment is described as follows: Breast Cancer Cell ER-α In Cell Western Assay (SP1). The settings on record: 4 or 24 hr post compound addition; for Emax: MCF7, SP1 antibody, read-out: ER-α In Cell Western Assay (SP1) Max Response; for DC50: SP1 antibody, read-out: ER-α In Cell Western Assay (SP1) IC50. The format is cell-based. In outline:
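MCF-7 cells in charcoal-stripped FBS medium, treated with 11-point semilog dilutions (0.3–0.000003 μM final) for 4 or 24 h. Fixed cells immunostained with SP1 antibody (800 nm) and DRAQ5 DNA (700 nm); ER/DNA ratio expressed as % of untreated cells.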

As a reminder, the IC50 is the concentration that inhibits the measured activity by half. A higher IC50 goes with lower potency. As for `COc1ccc(/C(=C(\c2ccc(/C=C/C(=O)O)cc2)c2ccc3[nH]nc(F)c3c2)C2CC2)c(C#N)c1` [Example 121, (E)-3-(4-((E)-2-(2-Cyano-4-methoxyphenyl)-2-cyclopropyl-1-(3-fluoro-1H-indazol-5-yl)vinyl)phenyl)acrylic acid], in experiment [1], the “MCF7 Viability Assay Max Response” value is reported as “++ (++ = a single % value ≧ 40%)” and the IC50 was at most 100 nM. For the same compound, in experiment [2], the Emax is at least 40% and the DC50 is at most 100 nM.
With `CS(=O)(=O)c1cnc(Oc2ccc(/C(=C(\c3ccc(/C=C/C(=O)O)cc3)c3ccc4[nH]nc(F)c4c3)C3CCC3)cc2)cn1` [Example 122, (E)-3-(4-((E)-2-Cyclobutyl-1-(3-fluoro-1H-indazol-5-yl)-2-(4-((5-(methylsulfonyl)pyrazin-2-yl)oxy)phenyl)vinyl)phenyl)acrylic acid], in experiment [1], the “MCF7 Viability Assay Max Response” value is on record as “++ (++ = a single % value ≧ 40%)” and the IC50 is at most 100 nM. In addition, in experiment [2], the Emax is at least 40% and the DC50 was at most 100 nM.
As to `O=C(O)/C=C/c1ccc(/C(=C(\c2ccccc2F)C2CCC2)c2ccc3[nH]nc(F)c3c2)cc1` [Example 123, (E)-3-(4-((E)-2-Cyclobutyl-1-(3-fluoro-1H-indazol-5-yl)-2-(2-fluorophenyl)vinyl)phenyl)acrylic acid], in experiment [1], the “MCF7 Viability Assay Max Response” value is given as “++ (++ = a single % value ≧ 40%)” and the 50% inhibitory concentration (IC50) is at most 100 nM. In experiment [2], the Emax is at least 40% and the DC50 was at most 100 nM.
Regarding `O=C(O)/C=C/c1ccc(/C(=C(\c2ccccc2Cl)C2CCC2)c2ccc3[nH]nc(F)c3c2)cc1` [Example 124, (E)-3-(4-((E)-2-(2-Chlorophenyl)-2-cyclobutyl-1-(3-fluoro-1H-indazol-5-yl)vinyl)phenyl)acrylic acid], in experiment [1], the “MCF7 Viability Assay Max Response” value is reported as “++ (++ = a single % value ≧ 40%)” and the IC50 was at most 100 nM. Moreover, in experiment [2], the Emax was at least 40% and the DC50 is at most 100 nM.
For the compound `Cc1ccccc1/C(=C(\c1ccc(/C=C/C(=O)O)cc1)c1ccc2[nH]nc(F)c2c1)C1CCC1` [Example 125, (E)-3-(4-((E)-2-Cyclobutyl-1-(3-fluoro-1H-indazol-5-yl)-2-(o-tolyl)vinyl)phenyl)acrylic acid], in experiment [1], the “MCF7 Viability Assay Max Response” value was “++ (++ = a single % value ≧ 40%)” and the IC50 was at most 100 nM. In experiment [2], the Emax was at least 40% and the DC50 was at most 100 nM.
Consider `Cc1cscc1/C(=C(\c1ccc(/C=C/C(=O)O)cc1)c1cccc2[nH]ncc12)C1CCC1` [Example 126, (E)-3-(4-((E)-2-Cyclobutyl-1-(1H-indazol-4-yl)-2-(4-methylthiophen-3-yl)vinyl)phenyl)acrylic acid], for which, in experiment [1], the “MCF7 Viability Assay Max Response” value was “++ (++ = a single % value ≧ 40%)” and the IC50 was at most 100 nM. For the same compound, in experiment [2], the Emax is at least 40% and the DC50 was at most 100 nM.
As for `COc1cc(C)c(/C(=C(\c2ccc(/C=C/C(=O)O)cc2)c2cccc3[nH]ncc23)C2CCC2)cn1` [Example 127, (E)-3-(4-((E)-2-Cyclobutyl-1-(1H-indazol-4-yl)-2-(6-methoxy-4-methylpyridin-3-yl)vinyl)phenyl)acrylic acid], in experiment [1], the “MCF7 Viability Assay Max Response” value is “++ (++ = a single % value ≧ 40%)” and the half-maximal inhibitory concentration (IC50) was at most 100 nM. In addition, in experiment [2], the Emax is at least 40% and the DC50 is at most 100 nM.
On to `O=C(O)/C=C/c1ccc(/C(=C(\c2cccnc2)C2CCC2)c2ccc3[nH]nc(F)c3c2)cc1` [Example 128, (E)-3-(4-((E)-2-Cyclobutyl-1-(3-fluoro-1H-indazol-5-yl)-2-(pyridin-3-yl)vinyl)phenyl)acrylic acid], for which, in experiment [1], the “MCF7 Viability Assay Max Response” value is recorded as “+ (+ = a single % value < 40%)” and the concentration for half-maximal inhibition (IC50) was above 100 nM. Moreover, in experiment [2], the Emax is at least 40% and the DC50 is at most 100 nM.
The matching figures for `Cc1cncc(/C(=C(\c2ccc(/C=C/C(=O)O)cc2)c2ccc3[nH]nc(F)c3c2)C2CCC2)c1` [Example 129, (E)-3-(4-((E)-2-Cyclobutyl-1-(3-fluoro-1H-indazol-5-yl)-2-(5-methylpyridin-3-yl)vinyl)phenyl)acrylic acid]: “++ (++ = a single % value ≧ 40%)”, at most 100 nM, at least 40% and at most 100 nM.
The matching figures for `O=C(O)/C=C/c1ccc(/C(=C(\c2cncc(Cl)c2)C2CCC2)c2ccc3[nH]nc(F)c3c2)cc1` [Example 130, (E)-3-(4-((E)-2-(5-Chloropyridin-3-yl)-2-cyclobutyl-1-(3-fluoro-1H-indazol-5-yl)vinyl)phenyl)acrylic acid]: “++ (++ = a single % value ≧ 40%)”, at most 100 nM, at least 40% and at most 100 nM.
The matching figures for `O=C(O)/C=C/c1ccc(/C(=C(\c2cncc(F)c2)C2CCC2)c2ccc3[nH]nc(F)c3c2)cc1` [Example 131, (E)-3-(4-((E)-2-Cyclobutyl-1-(3-fluoro-1H-indazol-5-yl)-2-(5-fluoropyridin-3-yl)vinyl)phenyl)acrylic acid]: “++ (++ = a single % value ≧ 40%)”, at most 100 nM, at least 40% and at most 100 nM.
In the case of `COc1cncc(/C(=C(\c2ccc(/C=C/C(=O)O)cc2)c2ccc3[nH]nc(F)c3c2)C2CCC2)c1` [Example 132, (E)-3-(4-((E)-2-Cyclobutyl-1-(3-fluoro-1H-indazol-5-yl)-2-(5-methoxypyridin-3-yl)vinyl)phenyl)acrylic acid], in experiment [1], the “MCF7 Viability Assay Max Response” value was “++ (++ = a single % value ≧ 40%)” and the IC50 is at most 100 nM. Further, in experiment [2], the Emax is at least 40% and the DC50 was at most 100 nM.
Take `COc1cc(C)ncc1/C(=C(\c1ccc(/C=C/C(=O)O)cc1)c1ccc2[nH]nc(F)c2c1)C1CCC1` [Example 133, (E)-3-(4-((E)-2-Cyclobutyl-1-(3-fluoro-1H-indazol-5-yl)-2-(4-methoxy-6-methylpyridin-3-yl)vinyl)phenyl)acrylic acid]: in experiment [1], the “MCF7 Viability Assay Max Response” value is “++ (++ = a single % value ≧ 40%)” and the IC50 is at most 100 nM. In addition, in experiment [2], the Emax was at least 40% and the DC50 is at most 100 nM.
With `Cc1nc(/C=C/C(=O)O)ccc1/C(=C(\c1ccccc1)C1CCC1)c1ccc2[nH]nc(F)c2c1` [Example 134, (E)-3-(5-((Z)-2-Cyclobutyl-1-(3-fluoro-1H-indazol-5-yl)-2-phenylvinyl)-6-methylpyridin-2-yl)acrylic acid], in experiment [1], the “MCF7 Viability Assay Max Response” value is “++ (++ = a single % value ≧ 40%)” and the IC50 is at most 100 nM. In addition, in experiment [2], the Emax was at least 40% and the DC50 is at most 100 nM.
As to `Cc1cc(/C(=C(\c2ccccc2)C2CCC2)c2ccc3[nH]nc(F)c3c2)cnc1/C=C/C(=O)O` [Example 135, (E)-3-(5-((Z)-2-Cyclobutyl-1-(3-fluoro-1H-indazol-5-yl)-2-phenylvinyl)-3-methylpyridin-2-yl)acrylic acid], in experiment [1], the “MCF7 Viability Assay Max Response” value is given as “++ (++ = a single % value ≧ 40%)” and the IC50 was above 100 nM. For the same compound, in experiment [2], the Emax is at least 40% and the DC50 was at most 100 nM.
Take `COc1ncc(/C(=C(\c2ccc(/C=C/C(=O)O)cc2)c2ccc3[nH]nc(F)c3c2)C2CCC2)cc1Cl` [Example 136, (E)-3-(4-((E)-2-(5-Chloro-6-methoxypyridin-3-yl)-2-cyclobutyl-1-(3-fluoro-1H-indazol-5-yl)vinyl)phenyl)acrylic acid]: in experiment [1], the “MCF7 Viability Assay Max Response” value is “++ (++ = a single % value ≧ 40%)” and the IC50 is at most 100 nM. In experiment [2], the Emax was at least 40% and the DC50 is at most 100 nM.
On to `COc1ncc(/C(=C(\c2ccc(/C=C/C(=O)O)cc2)c2ccc3[nH]nc(F)c3c2)C2CCC2)cc1F` [Example 137, (E)-3-(4-((E)-2-Cyclobutyl-1-(3-fluoro-1H-indazol-5-yl)-2-(5-fluoro-6-methoxypyridin-3-yl)vinyl)phenyl)acrylic acid], for which, in experiment [1], the “MCF7 Viability Assay Max Response” value is “++ (++ = a single % value ≧ 40%)” and the concentration for half-maximal inhibition (IC50) was at most 100 nM. Besides, in experiment [2], the Emax is at least 40% and the DC50 was at most 100 nM.
Consider `COc1ccc(/C(=C(\c2ccc(/C=C/C(=O)O)cc2)c2ccc3[nH]nc(F)c3c2)C2CCC2)cn1` [Example 138, (E)-3-(4-((E)-2-Cyclobutyl-1-(3-fluoro-1H-indazol-5-yl)-2-(6-methoxypyridin-3-yl)vinyl)phenyl)acrylic acid], for which, in experiment [1], the “MCF7 Viability Assay Max Response” value is “++ (++ = a single % value ≧ 40%)” and the IC50 was at most 100 nM. Moreover, in experiment [2], the Emax was at least 40% and the DC50 was at most 100 nM.

The record behind these values is patent US9499538B2, “Estrogen receptor modulators and uses thereof” (Seragon Pharmaceuticals, Inc., priority 2012, dated 2016).
